From US5079260A, “Method for treating inflammation and compounds and compositions suitable for use therein” (Nova Pharmaceutical Corporation, priority 1990, dated 1992)

Legend:
[1] = system: Ear Edema Caused By Tetradecanoylphorbol Acetate; assay: Inhibition of Ear Edema Caused by Tetradecanoylphorbol Acetate (II), Table 7; format: in vivo, CF-1 Mice; conditions: i.p., 3 h
Experimental: Inhibition of Ear Edema Caused by Tetradecanoylphorbol Acetate (II)
CF-1 Mice, 25-30 g body weight, six animals per group were used. Test compounds were administered intraperitoneally or topically as follows. For intraperitoneal administration, the test compound was dissolved in dimethyl sulfoxide or 0.5% methylcellulose and 100 microliters was injected 30 minutes prior to irritant (100 mg/kg, i.p.). […] A solution of the irritant, tetradecanoylphorbol acetate, 200 μg/mL, was added to the surface of the ear, 5 μL to the upper surface and 5 μL to the lower surface. After three hours, the thickness of the ear was measured to 0.01 mm by a micrometer with loose drag, positioned at the lateral-most edge of the mid-point of the pinna. Data were calculated as the inhibition of increased ear thickness compared to control animals receiving only the irritant.

[2] = system: Ear Edema Caused by Arachidonic Acid; assay: Inhibition of Ear Edema Caused by Arachidonic Acid (II), Table 8; format: in vivo, CF-1 mice; conditions: i.p., sixty minutes
Experimental: Inhibition of Ear Edema Caused by Arachidonic Acid (II)
CF-1 mice, 25-30 g body weight, six animals per group, were used. The requisite amount of the test compound was dissolved is dimethyl sulfoxide or 0.5% methylcellulose and 100 μL of the solution was injected intraperitoneally 30 minutes prior to the administration of 100 mg/kg of arachidponic acid. A solution of this irritant, b 100 mg/mL in ethanol, was applied to the surface of the ear, 5 μL to the upper surface and 5 μL to the lower surface. After sixty minutes, the thickness of the ear was measured to 0.01 mm by a micrometer with the loose drag positioned at the lateral-most edge of the mid-point of the pinna. Data were calculated as the percent inhibityion by the test compound of increased ear thickness compared to control animals recieveing only the irritant.

[3] = system: Ear Edema Caused by Xylene; assay: Inhibition of Ear Edema Caused by Xylene (II), Table 9; format: in vivo, CF-1 mice; conditions: i.p., 2 h
Experimental: Inhibition of Ear Edema Caused by Xylene (II)
CF-1 mice, 25-30 g body weight, six animals per group, were used. The requisite amount of the test compound was dissolved is dimethyl sulfoxide or 0.5% methylcellulose and 100 μL of the solution was injected intraperitoneally 30 minutes prior to the administration the irritant. The irritant xylene was applied to the surface of the ear, 20 μL to the upper surface and 20 μL to the lower surface, After two hours, the thickness of the ear was measured to 0.01 mm by a micrometer with the loose drag positioned at the lateral-most edge of the mid-point of the pinna. Data were calculated as the percent inhibition by the test compound of increased ear thickness compared to control animals receiving only the irritant.

[4] = system: Ear Edema Caused by Oxazolone; assay: Inhibition of Ear Edema Caused by Oxazolone (II), Table 10; format: in vivo, CF-1 mice; conditions: i.p., 24 h
Experimental: Inhibition of Ear Edema Caused by Oxazolone (II)
CF-1 mice, 25-30 g body weight, five to six animals per group were used. The mice were sensitized to the irritant two weeks prior to the test by dribbling 100 μL of a 3% solution of oxazolone in acetone onto the abdominal skin of the animal. Test compounds were administered intraperitoneally as follows. […] The irritant, 3% oxazolone in acetone, was added to the surface of the ear, 5 μL added to the upper surface and 5 μL added to the lower surface. After twenty four hours, the thickness of the ear was measured to 0.01 mm by a micrometer with loose drag, positioned at the lateral-most edge of the mid-point of the pinna. Data were calculated as the inhibition of increased ear thickness compared to control animals' receiving only the irritant.

[5] = system: Reverse Passive Artus Reaction; assay: Reverse Passive Artus Reaction (II), Table 11; format: in vivo, Male CD rats; conditions: inhibition of blueing; i.p., 100 mg/kg
Experimental: Reverse Passive Artus Reaction (II) Male CD rats weighing between 200 and 250 g were used. […] The animals were anesthetized inhalationally with isoflurane and then injected through the penile vein with 1 mL of a solution of 2.5 mg of Evan's blue dye and 5.0 mg of human serum albumin in 1 mL of saline. This treatment was followed immediately by intracutaneous injections of 0.03 mL of anti-human albumin diluted to contain 3.65 mg of antibody at 3 sites along the midline back. Anesthesia was terminated and after three hours, the animals were sacrificed. The skin was removed and the blue stained areas cut out. The skin patches were soaked overnight in stoppered tubes containing 1 mL of 1 N potassium hydroxide at 37° C. Then 9 mL of a mixture of five parts of a 0.6 N phosphoric acid and thirteen parts of acetone were added to the tubes. The tube contents were agitated and centrifuged, and the absorbance measured at 620 nm. The data were calculated as inhibition of blueing by test compound compared to control animals receiving only antigen and antibody.

Compound	% Inhibition Intraperitoneal ([1]; 10 mg/kg) [%]	% Inhibition Intraperitoneal ([1]; 30 mg/kg) [%]	% Inhibition Intraperitoneal ([2]; 10 mg/kg) [%]	% Inhibition Intraperitoneal ([2]; 30 mg/kg) [%]	% Inhibition Intraperitoneal ([2]; 100 mg/kg) [%]	% Inhibition ([3]; 10 mg/kg) [%]	% Inhibition ([3]; 30 mg/kg) [%]	% Inhibition ([3]; 100 mg/kg) [%]	% Inhibition Intraperitoneal ([4]; 10 mg/kg) [%]	% Inhibition Intraperitoneal ([4]; 30 mg/kg) [%]	% Inhibition Intraperitoneal ([4]; 100 mg/kg) [%]	% Inhibition Intraperitoneal [5] [%]	% Inhibition Intraperitoneal ([1]; 100 mg/kg) [%]
CCCC[C@H](NC(=O)OCC1c2ccccc2-c2ccccc21)C(=O)O [NPC 15667, N-[9H-(Fluorenyl-9-ylmethoxy)carbonyl]-L-norleucine]	-80	72	7	57	65	22	57	80	13	15	71	63	–
Cc1ccc2c(c1)C(COC(=O)N[C@@H](CC(C)C)C(=O)O)c1cc(C)ccc1-2 [NPC 15669, N-{[9H-(2,7-Dimethylfluoren-9-yl)methoxy]-carbonyl}-L-leucine]	43	27	12	22	60	12	22	60	-40	84	84	60	133
Cc1ccc2c(c1)C(CCC(=O)N[C@@H](CC(C)C)C(=O)O)c1ccccc1-2 (stereo partly drawn) [NPC 15671, N-{9H-[3-(2-Methylfluoren-9-yl)propionyl]}-L-leucine]	41	31	40	19	56	6	10	18	5	20	69	13	66
COCc1cccc2c1C(COC(=O)N[C@@H](CC(C)C)C(=O)O)c1ccccc1-2 (stereo partly drawn) [NPC 15673, N-{[9H-(1-Methoxymethylfluoren-9-yl)methoxy]carbonyl}-L-leucine]	0	33	24	27	58	20	26	29	0	12	18	46	60
CC(C)(C)C[C@H](NC(=O)OCC1c2ccccc2-c2ccccc21)C(=O)O [NPC 15676, N-[(9H-Fluoren-9-ylmethoxy)carbonyl]-L--neopentylglycine quarter hydrate]	0	20	20	44	79	26	12	44	0	4	50	82	16
CC(C)(C)[C@H](NC(=O)CCC1c2ccccc2-c2ccccc21)C(=O)O [NPC 15685, N-[3-(9H-Fluoren-9-yl)propionyl]-L-tert-leucine, quarter hydrate]	0	16	44	61	69	5	23	18	0	30	30	42	67
